Data reported in US12577240B2, “Antiviral heteroaryl ketone derivatives” (Pfizer Inc., priority 2020, dated 2026).

Experiments:
[1] = tested on: SARS-CoV-2 (USA_WA1/2020) in VeroE6 cells enriched for hACE2 expression; assay: Antiviral Activity from SARS-CoV-2 Infection (cytopathic effect, Cell Titer-Glo cell viability); type: cell-based; details: Severe acute respiratory syndrome coronavirus 2, Vero C1008, 72 h; VeroE6 cells enriched for hACE2, multiplicity of infection 0.002, 3-day incubation; alone or with 2 μM CP-100356 (table does not say which); read-out: Antiviral Assay Geometric Mean EC50
[2] = molecular target: T1, full length SARS-CoV-2 3CL protease (Severe acute respiratory syndrome coronavirus 2, UniProt P0DTD1); assay: SARS-CoV-2 Coronavirus 3C Protease FRET Assay; type: biochemical; details: 15 nM enzyme, 25 μM peptide substrate, 60 minutes at 23° C., Morrison equation fit; read-out: FRET Assay Geometric Mean Ki
T1 construct: measures the activity of full length SARS-CoV-2 3CL protease

SMILES: CC(C)[C@H](NS(C)(=O)=O)C(=O)N1CC2(CC2)C[C@H]1C(=O)N[C@@H](C[C@@H]1CCNC1=O)C(=O)c1nc2ccccc2s1 [Example 1, (6S)—N-{(2S)-1-(1,3-Benzothiazol-2-yl)-1-oxo-3-[(3S)-2-oxopyrrolidin-3-yl]propan-2-yl}-5-{(2S)-3-methyl-2-[(methylsulfonyl)amino]butanoyl}-5-azaspiro[2.4]heptane-6-carboxamide]
- EC50 [1]: 5680 nM
- Ki [2]: 20.2 nM

SMILES: COc1cccc2[nH]c(C(=O)N3C[C@H]4[C@@H]([C@H]3C(=O)N[C@@H](C[C@@H]3CCNC3=O)C(=O)c3nc5ccccc5s3)C4(C)C)cc12 [Example 2, (1R,2S,5S)—N-{(2S)-1-(1,3-Benzothiazol-2-yl)-1-oxo-3-[(3S)-2-oxopyrrolidin-3-yl]propan-2-yl}-3-[(4-methoxy-1H-indol-2-yl)carbonyl]-6,6-dimethyl-3-azabicyclo[3.1.0]hexane-2-carboxamide]
- Ki [2]: 206 nM

SMILES: CC(C)[C@H](NS(C)(=O)=O)C(=O)N1C[C@H]2[C@@H]([C@H]1C(=O)N[C@@H](C[C@@H]1CCNC1=O)C(=O)c1nc3c(C(F)(F)F)cccc3s1)C2(C)C [Example 4, (1R,2S,5S)-6,6-Dimethyl-3-[N-(methylsulfonyl)-L-valyl]-N-{(2S)-1-oxo-3-[(3S)-2-oxopyrrolidin-3-yl]-1-[4-(trifluoromethyl)-1,3-benzothiazol-2-yl]propan-2-yl}-3-azabicyclo[3.1.0]hexane-2-carboxamide]
- Ki [2]: 7.74 nM

SMILES: CC(C)(C)OC(=O)N[C@H](C(=O)N1C[C@H]2[C@@H]([C@H]1C(=O)N[C@@H](C[C@@H]1CCNC1=O)C(=O)c1nc3ccccc3s1)C2(C)C)C(C)(C)C [Example 6, tert-Butyl {(2S)-1-[(1R,2S,5S)-2-({(2S)-1-(1,3-benzothiazol-2-yl)-1-oxo-3-[(3S)-2-oxopyrrolidin-3-yl]propan-2-yl}carbamoyl)-6,6-dimethyl-3-azabicyclo[3.1.0]hexan-3-yl]-3,3-dimethyl-1-oxobutan-2-yl}carbamate]
- EC50 [1]: 492 nM
- Ki [2]: 137 nM

SMILES: CC1(C)[C@@H]2[C@@H](C(=O)N[C@@H](C[C@@H]3CCNC3=O)C(=O)c3nc4ccccc4s3)N(C(=O)[C@H]3CCCO3)C[C@@H]21 [Example 8, (1R,2S,5S)-N-{(2S)-1-(1,3-benzothiazol-2-yl)-1-oxo-3-[(3S)-2-oxopyrrolidin-3-yl]propan-2-yl}-6,6-dimethyl-3-[(2R)-tetrahydrofuran-2-ylcarbonyl]-3-azabicyclo[3.1.0]hexane-2-carboxamide]
- Ki [2]: 6330 nM

SMILES: O=C1NCC[C@H]1C[C@H](NC(=O)[C@@H]1CC2(CC2)CN1C(=O)[C@H]1CCCO1)C(=O)c1nc2ccccc2s1 [Example 9, (6S)-N-{(2S)-1-(1,3-benzothiazol-2-yl)-1-oxo-3-[(3S)-2-oxopyrrolidin-3-yl]propan-2-yl}-5-[(2R)-tetrahydrofuran-2-ylcarbonyl]-5-azaspiro[2.4]heptane-6-carboxamide]
- Ki [2]: > 10000 nM

SMILES: CC(C)[C@H](NS(=O)(=O)C1CC1)C(=O)N1C[C@H]2[C@@H]([C@H]1C(=O)N[C@@H](C[C@@H]1CCNC1=O)C(=O)c1nc3ccccc3s1)C2(C)C [Example 10, (1R,2S,5S)-N-{(2S)-1-(1,3-benzothiazol-2-yl)-1-oxo-3-[(3S)-2-oxopyrrolidin-3-yl]propan-2-yl}-3-[N-(cyclopropylsulfonyl)-L-valyl]-6,6-dimethyl-3-azabicyclo[3.1.0]hexane-2-carboxamide]
- Ki [2]: 19.6 nM

SMILES: CC(C)(C)[C@H](NS(=O)(=O)C(C)(C)C)C(=O)N1C[C@H]2[C@@H]([C@H]1C(=O)N[C@@H](C[C@@H]1CCNC1=O)C(=O)c1nc3ccccc3s1)C2(C)C [Example 11, (1R,2S,5S)-N-{(2S)-1-(1,3-benzothiazol-2-yl)-1-oxo-3-[(3S)-2-oxopyrrolidin-3-yl]propan-2-yl}-3-[N-(tert-butylsulfonyl)-3-methyl-L-valyl]-6,6-dimethyl-3-azabicyclo[3.1.0]hexane-2-carboxamide]
- EC50 [1]: 155 nM
- Ki [2]: 13.7 nM

SMILES: CC(C)[C@H](NS(=O)(=O)C(C)(C)C)C(=O)N1C[C@H]2[C@@H]([C@H]1C(=O)N[C@@H](C[C@@H]1CCNC1=O)C(=O)c1nc3ccccc3s1)C2(C)C [Example 12, (1R,2S,5S)-N-{(2S)-1-(1,3-benzothiazol-2-yl)-1-oxo-3-[(3S)-2-oxopyrrolidin-3-yl]propan-2-yl}-3-[N-(tert-butylsulfonyl)-L-valyl]-6,6-dimethyl-3-azabicyclo[3.1.0]hexane-2-carboxamide]
- Ki [2]: 34.2 nM

SMILES: CC(C)C(=O)N[C@H](C(=O)N1C[C@H]2[C@@H]([C@H]1C(=O)N[C@@H](C[C@@H]1CCNC1=O)C(=O)c1nc3ccccc3s1)C2(C)C)C(C)(C)C [Example 14, (1R,2S,5S)-N-{(2S)-1-(1,3-benzothiazol-2-yl)-1-oxo-3-[(3S)-2-oxopyrrolidin-3-yl]propan-2-yl}-6,6-dimethyl-3-[3-methyl-N-(2-methylpropanoyl)-L-valyl]-3-azabicyclo[3.1.0]hexane-2-carboxamide]
- Ki [2]: 6.02 nM

SMILES: CCC(=O)N[C@H](C(=O)N1C[C@H]2[C@@H]([C@H]1C(=O)N[C@@H](C[C@@H]1CCNC1=O)C(=O)c1nc3ccccc3s1)C2(C)C)C(C)(C)C [Example 15, (1R,2S,5S)-N-{(2S)-1-(1,3-benzothiazol-2-yl)-1-oxo-3-[(3S)-2-oxopyrrolidin-3-yl]propan-2-yl}-6,6-dimethyl-3-(3-methyl-N-propanoyl-L-valyl)-3-azabicyclo[3.1.0]hexane-2-carboxamide]
- Ki [2]: 6.14 nM

SMILES: CCS(=O)(=O)N[C@H](C(=O)N1C[C@H]2[C@@H]([C@H]1C(=O)N[C@@H](C[C@@H]1CCNC1=O)C(=O)c1nc3ccccc3s1)C2(C)C)C(C)C [Example 16, (1R,2S,5S)-N-{(2S)-1-(1,3-benzothiazol-2-yl)-1-oxo-3-[(3S)-2-oxopyrrolidin-3-yl]propan-2-yl}-3-[N-(ethylsulfonyl)-L-valyl]-6,6-dimethyl-3-azabicyclo[3.1.0]hexane-2-carboxamide]
- Ki [2]: 10.3 nM

SMILES: CC(C)(C)C(=O)N[C@H](C(=O)N1C[C@H]2[C@@H]([C@H]1C(=O)N[C@@H](C[C@@H]1CCNC1=O)C(=O)c1nc3ccccc3s1)C2(C)C)C(C)(C)C [Example 17, (1R,2S,5S)-N-{(2S)-1-(1,3-benzothiazol-2-yl)-1-oxo-3-[(3S)-2-oxopyrrolidin-3-yl]propan-2-yl}-3-[N-(2,2-dimethylpropanoyl)-3-methyl-L-valyl]-6,6-dimethyl-3-azabicyclo[3.1.0]hexane-2-carboxamide]
- EC50 [1]: 584 nM
- Ki [2]: 99.1 nM

SMILES: CC(C)(C)[C@H](NS(C)(=O)=O)C(=O)N1C[C@H]2[C@@H]([C@H]1C(=O)N[C@@H](C[C@@H]1CCNC1=O)C(=O)c1nc3ccccc3s1)C2(C)C [Example 18, (1R,2S,5S)-N-{(2S)-1-(1,3-benzothiazol-2-yl)-1-oxo-3-[(3S)-2-oxopyrrolidin-3-yl]propan-2-yl}-6,6-dimethyl-3-[3-methyl-N-(methylsulfonyl)-L-valyl]-3-azabicyclo[3.1.0]hexane-2-carboxamide]
- EC50 [1]: 129 nM
- Ki [2]: 1.55 nM

SMILES: CC(=O)N[C@H](C(=O)N1C[C@H]2[C@@H]([C@H]1C(=O)N[C@@H](C[C@@H]1CCNC1=O)C(=O)c1nc3ccccc3s1)C2(C)C)C(C)(C)C [Example 19, (1R,2S,5S)-3-(N-acetyl-3-methyl-L-valyl)-N-{(2S)-1-(1,3-benzothiazol-2-yl)-1-oxo-3-[(3S)-2-oxopyrrolidin-3-yl]propan-2-yl}-6,6-dimethyl-3-azabicyclo[3.1.0]hexane-2-carboxamide]
- EC50 [1]: 1330 nM
- Ki [2]: 9.77 nM

SMILES: CC1(C)C[C@@H](C(=O)N[C@@H](C[C@@H]2CCNC2=O)C(=O)c2nc3ccccc3s2)N(C(=O)[C@H]2CCCO2)C1 [Example 20, N-{(2S)-1-(1,3-benzothiazol-2-yl)-1-oxo-3-[(3S)-2-oxopyrrolidin-3-yl]propan-2-yl}-4,4-dimethyl-1-[(2R)-tetrahydrofuran-2-ylcarbonyl]-L-prolinamide]
- Ki [2]: > 10800 nM
